Data on 21 compounds can be found in patent US11919901B2 (Syndax Pharmaceuticals, Inc., priority 2021, dated 2024).

The target in this test is Menin-MLL (Homo sapiens (Human), UniProt O00255). The test can be described thus: Determination of binding constants (Ki) to Menin-MLL (HTRF). Particulars: HTRF, 0.25 nM H-FL-Menin, 3.2 nM FITC-MLL-4-43, 24 hr incubation; for Ki: read-out: Menin-MLL Ki HTRF Assay: Ki. Background: Time-resolved FRET reads energy transfer from a long-lived donor to a nearby acceptor.
Chain of Menin-MLL (O00255 whole entry): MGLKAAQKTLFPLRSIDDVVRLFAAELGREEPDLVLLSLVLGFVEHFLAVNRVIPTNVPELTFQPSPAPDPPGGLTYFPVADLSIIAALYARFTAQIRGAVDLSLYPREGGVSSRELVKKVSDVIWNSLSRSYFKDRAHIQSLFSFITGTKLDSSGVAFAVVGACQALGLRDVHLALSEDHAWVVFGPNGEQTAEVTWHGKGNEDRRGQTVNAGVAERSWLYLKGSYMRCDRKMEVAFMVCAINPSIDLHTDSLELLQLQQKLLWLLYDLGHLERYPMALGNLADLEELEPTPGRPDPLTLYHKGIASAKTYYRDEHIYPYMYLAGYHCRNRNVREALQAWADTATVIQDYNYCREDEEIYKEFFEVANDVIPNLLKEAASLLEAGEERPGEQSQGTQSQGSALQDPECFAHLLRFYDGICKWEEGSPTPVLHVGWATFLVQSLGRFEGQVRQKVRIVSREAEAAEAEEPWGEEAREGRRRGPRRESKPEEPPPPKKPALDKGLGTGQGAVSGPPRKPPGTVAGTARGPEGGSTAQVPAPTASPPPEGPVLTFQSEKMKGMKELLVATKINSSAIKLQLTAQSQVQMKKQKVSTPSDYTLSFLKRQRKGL

As a reminder, the Ki is the equilibrium dissociation constant of an inhibitor or competing ligand from its target. Consider `COC[C@@H]1CCCN1S(=O)(=O)N[C@@H]1CC[C@@H](CN2CCC3(CC2)CN(c2ncncc2Oc2ccc(F)cc2C(=O)N(C(C)C)C(C)C)C3)OC1` [Compound 213, 5-Fluoro-N,N-diisopropyl-2-((4-(7-(((2S,5R)-5-(((S)-2-(methoxymethyl)pyrrolidine)-1-sulfonamido)tetrahydro-2H-pyran-2-yl)methyl)-2,7-diazaspiro[3.5]nonan-2-yl)pyrimidin-5-yl)oxy)benzamide], for which the Ki was below 1 nM. By EC50 is commonly meant the concentration that produces a half-maximal response. Read a high EC50 as weaker potency. `CCN(C(=O)c1cc(F)ccc1Oc1cncnc1N1CC2(CCN(C[C@@H]3CC[C@@H](NC(=O)Nc4ccccc4)CO3)CC2)C1)C(C)C` [Compound 215, N-Ethyl-5-fluoro-N-isopropyl-2-((4-(7-(((2S,5R)-5-(3-phenylureido)tetrahydro-2H-pyran-2-yl)methyl)-2,7-diazaspiro[3.5]nonan-2-yl)pyrimidin-5-yl)oxy)benzamide]: the EC50 is 50 to 100 nM. On to `CCN(C(=O)c1cc(F)ccc1Oc1cnc(C)nc1N1CC2(CCN(C[C@@H]3CC[C@@H](NS(=O)(=O)CC)CO3)CC2)C1)C(C)C` [Compound 216, N-Ethyl-2-((4-(7-(((2S,5R)-5-(ethylsulfonamido)tetrahydro-2H-pyran-2-yl)methyl)-2,7-diazaspiro[3.5]nonan-2-yl)-2-methylpyrimidin-5-yl)oxy)-5-fluoro-N-isopropylbenzamide], for which the inhibitory constant (Ki) lay in the range of 1 to 1.5 nM. Same read-out and setting: the figure for `C=CS(=O)(=O)N[C@@H]1CC[C@@H](CN2CCC3(CC2)CN(c2ncncc2Oc2ccc(F)cc2C(=O)N(CC)C(C)C)C3)OC1` [Compound 219, N-Ethyl-5-fluoro-N-isopropyl-2-((4-(7-(((2S,5R)-5-(vinylsulfonamido)tetrahydro-2H-pyran-2-yl)methyl)-2,7-diazaspiro[3.5]nonan-2-yl)pyrimidin-5-yl)oxy)benzamide] is below 1 nM; for `CCN(C(=O)c1cc(F)ccc1Oc1cncnc1N1CC2(CCN(C[C@@H]3CC[C@@H](NS(=O)(=O)CCN(C)C)CO3)CC2)C1)C(C)C` [Compound 220, 2-((4-(7-(((2S,5R)-5-((2-(Dimethylamino)ethyl)sulfonamido)tetrahydro-2H-pyran-2-yl)methyl)-2,7-diazaspiro[3.5]nonan-2-yl)pyrimidin-5-yl)oxy)-N-ethyl-5-fluoro-N-isopropylbenzamide] it is 1 to 1.5 nM; for `CC(C)N(C(=O)c1cc(F)ccc1Oc1cncnc1N1CC2(CCN(C[C@@H]3CC[C@@H](NS(=O)(=O)N4CC5(CCO5)C4)CO3)CC2)C1)C(C)C` [Compound 221, 2-((4-(7-(((2S,5R)-5-(1-Oxa-6-azaspiro[3.3]heptane-6-sulfonamido)tetrahydro-2H-pyran-2-yl)methyl)-2,7-diazaspiro[3.5]nonan-2-yl)pyrimidin-5-yl)oxy)-5-fluoro-N,N-diisopropylbenzamide] it is below 1 nM. On the same count and under the same terms, next, `CC(C)N(C(=O)c1cc(F)ccc1Oc1cncnc1N1CC2(CCN(C[C@@H]3CC[C@@H](NS(=O)(=O)N4CC5(COC5)C4)CO3)CC2)C1)C(C)C` [Compound 222, 2-((4-(7-(((2S,5R)-5-(2-Oxa-6-azaspiro[3.3]heptane-6-sulfonamido)tetrahydro-2H-pyran-2-yl)methyl)-2,7-diazaspiro[3.5]nonan-2-yl)pyrimidin-5-yl)oxy)-5-fluoro-N,N-diisopropylbenzamide]: below 1 nM; `CN=S(=O)(N[C@@H]1CC[C@@H](CN2CCC3(CC2)CN(c2ncncc2Oc2ccc(F)cc2C(=O)N(C(C)C)C(C)C)C3)OC1)c1ccccc1` (stereo partly drawn) [Compound 232, 5-Fluoro-N,N-diisopropyl-2-((4-(7-(((2S,5R)-5-(N′-methylphenylsulfonoamidimidamido)tetrahydro-2H-pyran-2-yl)methyl)-2,7-diazaspiro[3.5]nonan-2-yl)pyrimidin-5-yl)oxy)benzamide]: below 1 nM; `CC(C)N(C(=O)c1cc(F)ccc1Oc1cncnc1N1CC2(CCN(C[C@@H]3CC[C@@H](NS(=N)(=O)C4CC4)CO3)CC2)C1)C(C)C` (stereo partly drawn) [Compound 233, 2-((4-(7-(((2S,5R)-5-(Cyclopropanesulfonoamidimidamido)tetrahydro-2H-pyran-2-yl)methyl)-2,7-diazaspiro[3.5]nonan-2-yl)pyrimidin-5-yl)oxy)-5-fluoro-N,N-diisopropylbenzamide]: below 1 nM. Same read-out and setting: the figure for `Cc1ncc(S(=O)(=O)N[C@@H]2CC[C@@H](CN3CCC4(CC3)CN(c3ncncc3Oc3ccc(F)cc3C(=O)N(C(C)C)C(C)C)C4)OC2)[nH]1` [Compound 234, 5-Fluoro-N,N-diisopropyl-2-((4-(7-(((2S,5R)-5-((2-methyl-1H-imidazole)-5-sulfonamido)tetrahydro-2H-pyran-2-yl)methyl)-2,7-diazaspiro[3.5]nonan-2-yl)pyrimidin-5-yl)oxy)benzamide] is below 1 nM; for `CC(C)N(CC(F)F)C(=O)c1cc(F)ccc1Oc1cncnc1N1CC2(CCN(C[C@@H]3CC[C@@H](NS(=O)(=O)N4CC(OCc5ccccc5)C4)CO3)CC2)C1` [Compound 236, 2-((4-(7-(((2S,5R)-5-((3-(Benzyloxy)azetidine)-1-sulfonamido)tetrahydro-2H-pyran-2-yl)methyl)-2,7-diazaspiro[3.5]nonan-2-yl)pyrimidin-5-yl)oxy)-N-(2,2-difluoroethyl)-5-fluoro-N-isopropylbenzamide] it is below 1 nM. On to `CC(C)N(CC(F)F)C(=O)c1cc(F)ccc1Oc1cncnc1N1CC2(CCN(C[C@@H]3CC[C@@H](NS(=O)(=O)N4CC(O)C4)CO3)CC2)C1` [Compound 237, N-(2,2-Difluoroethyl)-5-fluoro-2-((4-(7-(((2S,5R)-5-((3-hydroxyazetidine)-1-sulfonamido)tetrahydro-2H-pyran-2-yl)methyl)-2,7-diazaspiro[3.5]nonan-2-yl)pyrimidin-5-yl)oxy)-N-isopropylbenzamide], for which the Ki is below 1 nM. Still for that read-out and setting: next, `CC(C)N(CC(F)F)C(=O)c1cc(F)ccc1Oc1cncnc1N1CC2(CCN(C[C@@H]3CC[C@@H](NS(=O)(=O)N(C)CCOCc4ccccc4)CO3)CC2)C1` [Compound 238]: below 1 nM. As to `CCS(=O)(=O)N[C@@H]1CC[C@@H](CN2CCC3(CC2)CN(c2ncncc2Oc2ccc(F)cc2C(=O)N(CCC(F)F)C(C)C)C3)OC1` [Compound 242, N-(3,3-Difluoropropyl)-2-((4-(7-(((2S,5R)-5-(ethylsulfonamido)tetrahydro-2H-pyran-2-yl)methyl)-2,7-diazaspiro[3.5]nonan-2-yl)pyrimidin-5-yl)oxy)-5-fluoro-N-isopropylbenzamide], the concentration for a half-maximal effect (EC50) is below 50 nM and the Ki was below 1 nM.

On to `CC(C)N(C(=O)c1cc(F)ccc1Oc1cncnc1N1CC2(CCN(C[C@@H]3CC[C@@H](NS(=O)(=O)C4CC4)CO3)CC2)C1)C1COC1` [Compound 247, 2-((4-(7-(((2S,5R)-5-(Cyclopropanesulfonamido)tetrahydro-2H-pyran-2-yl)methyl)-2,7-diazaspiro[3.5]nonan-2-yl)pyrimidin-5-yl)oxy)-5-fluoro-N-isopropyl-N-(oxetan-3-yl)benzamide], for which the concentration giving a half-maximal response (EC50) is below 50 nM and the inhibitory constant (Ki) was below 1 nM.

As to `CCS(=O)(=O)N[C@@H]1CC[C@@H](CN2CCC3(CC2)CN(c2ncncc2Oc2ccc(F)cc2C(=O)N(C(C)C)C2CCOCC2)C3)OC1` [Compound 250, 2-((4-(7-(((2S,5R)-5-(Ethylsulfonamido)tetrahydro-2H-pyran-2-yl)methyl)-2,7-diazaspiro[3.5]nonan-2-yl)pyrimidin-5-yl)oxy)-5-fluoro-N-isopropyl-N-(tetrahydro-2H-pyran-4-yl)benzamide], the EC50 was below 50 nM. As to `CCS(=O)(=O)N[C@@H]1CC[C@@H](CN2CCC3(CC2)CN(c2ncncc2Oc2ccc(F)cc2C(=O)N(C(C)C)[C@@H]2C[C@@H]4CC[C@H]2O4)C3)OC1` [Compound 251, N-((lR,2R,4S)-7-Oxabicyclo[2.2.1]heptan-2-yl)-2-((4-(7-(((2S,5R)-5-(ethylsulfonamido)tetrahydro-2H-pyran-2-yl)methyl)-2,7-diazaspiro[3.5]nonan-2-yl)pyrimidin-5-yl)oxy)-5-fluoro-N-isopropylbenzamide], the inhibitory constant (Ki) was below 1 nM.

`CCS(=O)(=O)N[C@@H]1CC[C@@H](CN2CCC3(CC2)CN(c2ncncc2Oc2ccc(F)cc2C(=O)N(C(C)C)C2CC4(COC4)C2)C3)OC1` [Compound 252, 2-((4-(7-(((2S,5R)-5-(Ethylsulfonamido)tetrahydro-2H-pyran-2-yl)methyl)-2,7-diazaspiro[3.5]nonan-2-yl)pyrimidin-5-yl)oxy)-5-fluoro-N-isopropyl-N-(2-oxaspiro[3.3]heptan-6-yl)benzamide]: the inhibitory constant (Ki) is below 1 nM. Same read-out and setting: the figure for `CCS(=O)(=O)N[C@@H]1CC[C@@H](CN2CCC3(CC2)CN(c2ncncc2Oc2ccc(F)cc2C(=O)N(C(C)C)[C@H]2[C@@H]4COC[C@@H]42)C3)OC1` [Compound 253, N-((1R,5S,6r)-3-c)-2-((4-(7-(((2S,5R)-5-(ethylsulfonamido)tetrahydro-2H-pyran-2-yl)methyl)-2,7-diazaspiro[3.5]nonan-2-yl)pyrimidin-5-yl)oxy)-5-fluoro-N-isopropylbenzamide] is below 1 nM. As for `COCCN(C(=O)c1cc(F)ccc1Oc1cncnc1N1CC2(CCN(C[C@@H]3CC[C@@H](NS(=O)(=O)c4ccccc4)CO3)CC2)C1)C(C)C` [Compound 254, 5-Fluoro-N-isopropyl-N-(2-methoxyethyl)-2-((4-(7-(((2S,5R)-5-(phenylsulfonamido)tetrahydro-2H-pyran-2-yl)methyl)-2,7-diazaspiro[3.5]nonan-2-yl)pyrimidin-5-yl)oxy)benzamide], the EC50 is below 50 nM and the Ki is below 1 nM. On the same counts, the results for `CCS(=O)(=O)N[C@@H]1CC[C@@H](CN2CCC3(CC2)CN(c2ncncc2Oc2ccc(F)cc2C(=O)N(C[C@@H](O)CO)C(C)C)C3)OC1` [Compound 255, N-((R)-2,3-Dihydroxypropyl)-2-((4-(7-(((2S,5R)-5-(ethylsulfonamido)tetrahydro-2H-pyran-2-yl)methyl)-2,7-diazaspiro[3.5]nonan-2-yl)pyrimidin-5-yl)oxy)-5-fluoro-N-isopropylbenzamide] are below 50 nM and below 1 nM.
